SMILES strings stand for the structures. Where a name gives a salt, the structure may show the parent alone.

The target of one assay is sigma receptors. The assay can be described thus: Inhibition of ^3H-DTG binding to sigma receptors in rat brain in vitro. As to conditions: Table I; 2 nM ^3H-DTG, rat brain without cerebellum, 25° C., 20 min.
With `Cc1ccc2c(c1)COC21CCN(CCCCCCN2CCC3(CC2)OCc2cc(C)ccc23)CC1` [Compound 11a, 1,6-Bis[5-methyl-spiro[isebenzofuran-1(3 H),4'-piperidin]-1-yl]hexane], the IC50 (as a rule, the point on the concentration scale where inhibition reaches its midpoint) was determined as 9.7 nM.
On the same count and under the same terms, the value for `Fc1cccc2c1C1(CCN(CCCCN3CCC4(CC3)OCc3cccc(F)c34)CC1)OC2` [Compound 1m, 1,4-Bis[7-fluoro-spiro[isobenzofuran-1(3 H),4'-piperidin]-1'-yl]butane] was 5.1 nM.
On the same count and under the same terms, the value for `Fc1ccc(C2=CCN(CCCCN3CC=C(c4ccc(F)cc4)CC3)CC2)cc1` [Compound 6a, 1,4-Bis[4-(4-fluorophenyl)-1,2,3,6-tetrahydropyridin-1-yl]butane] was 0.31 nM.
The compound `FC(F)(F)c1ccc2c(c1)C1(CCN(CCCCN3CCC4(CC3)OCc3ccc(C(F)(F)F)cc34)CC1)OC2` [Compound 1j, 1,4-Bis[6-(trifluoromethyl)-spiro[isobenzofuran-1(3 H),4'-piperidin]-1-yl]butane, dihydrochloride] came in with an IC50 of 19 nM. Against the preceding compound, the IC50 is about 61-fold higher.
As for `O=C(CN1CCN(c2ccc(F)cc2)CC1)CN1CCN(c2ccc(F)cc2)CC1` [Compound 13a, 1,3-Bis[4-(4-fluorophenyl)piperazin-1-yl]-2-propanone], the IC50 is 2500 nM.
On the same count and under the same terms, the value for `c1ccc2c(c1)COC21CCN(CCN2CCC3(CC2)OCc2ccccc23)CC1` [Compound 2c, 1,2-Bis[spiro[isobenzofuran-1(3 H),4'-piperidin]-1'-yl]ethane] was 0.23 nM.
Turning to `Fc1ccc2c(c1)C1(CCN(CCCCN3CCC4(CC3)OCc3ccc(F)cc34)CC1)OC2` [Compound 1g, 1,4-Bis[6-fluoro-spiro[isobenzofuran-1(3 H),4'-piperidin]-1'-yl]butane], the IC50 is 0.44 nM.
Compound `Fc1ccc(C2CCN(CCCCN3CCC(c4ccc(F)cc4)CC3)CC2)cc1` [Compound 1b, 1,4-Bis[4-(4-fluorophenyl)piperidin-1-yl]butane] had an IC50 of 0.41 nM.
Still for that read-out and setting: next, `c1ccc2c(c1)CCC1(CCN(CCCCN3CCC4(CCc5ccccc5O4)CC3)CC1)O2` [Compound 1r, 1,4-Bis[3,4-dihydro-spiro[1-benzopyran-2,4'-piperidin]-1-yl]butane, difumarate]: 130 nM; `Cc1ccc2c(c1)COC21CCN(CCCCN2CCC3(CC2)OCc2cc(C)ccc23)CC1` [Compound 1l, 1,4-Bis[5-methyl-spiro[isobenzofuran-1(3 H),4'-piperidin]-1-yl]butane]: 23 nM; `c1ccc2c(c1)COC21CCN(CCCCCCN2CCC3(CC2)OCc2ccccc23)CC1` [Compound 1f, 1,6-Bis[spiro[isobenzofuran-1(3 H),4'-piperidin]-1'-yl]hexane]: 0.71 nM.
On the same count and under the same terms, next, `CN(CCN1CCC2(CC1)OCc1ccccc12)CCN1CCC2(CC1)OCc1ccccc12` [Compound 3b, N,N-Bis[2-spiro[isobenzofuran-1(3 H),4'-piperidin]-1'-ylethyl]-N-methylamine, trihydrochloride]: 4.9 nM.
Same read-out and setting: the value for `Fc1ccc(C2CCN(CCN3CCC(c4ccc(F)cc4)CC3)CC2)cc1` [Compound 2d, 1,2-Bis[4-(4-fluorophenyl)piperidin-1-yl]ethane] was 0.5 nM; that for `Fc1ccc(N2CCN(CCCCN3CCN(c4ccc(F)cc4)CC3)CC2)cc1` [Compound 1e, 1,4-Bis[4-(4-fluorophenyl)piperazin-1-yl]butane] was 0.89 nM.
`C1=CC2(CCN(CCCCN3CCC4(C=Cc5ccccc5O4)CC3)CC2)Oc2ccccc21` [Compound 1p, 1,4-Bis[spiro[1-benzopyran-2,4'-piperidin]-1-yl]butane, difumarate]: the IC50 worked out at 32 nM.
In turn, `c1ccc2c(c1)CCOC21CCN(CCCCN2CCC3(CC2)OCCc2ccccc23)CC1` [Compound 1t, 1,4-Bis[spiro[1-benzopyran-2,4'-piperidin]-1-yl]butane, 1.25 fumarate] had an IC50 of 0.38 nM. This IC50 lies about 84-fold lower than the previous one.
Still for that read-out and setting: next, `O=S(=O)(CCN1CCC2(CC1)OCc1ccccc12)CCN1CCC2(CC1)OCc1ccccc12` [Compound 9a, Bis[2-spiro[isobenzofuran-1(3 H),4'-piperidin]-1'-ylethyl]sulphone]: 1800 nM.
Same read-out and setting: the value for `c1ccc2c(c1)COC21CCN(CCCN2CCC3(CC2)OCc2ccccc23)CC1` [Compound 2a, 1,3-Bis[spiro[isobenzofuran-1(3 H),4'-piperidin]-1'-yl]propane difumarate] was 0.76 nM; that for `Fc1ccc(C2CCN(CCN(CCN3CCC(c4ccc(F)cc4)CC3)c3ccccc3)CC2)cc1` [Compound 7a, N,N-Bis[2-[4-(4-fluorophenyl)piperidin-1-yl]ethyl]aniline] was 3.6 nM.
Turning to `c1ccc2c(c1)CSC21CCN(CCCCN2CCC3(CC2)SCc2ccccc23)CC1` [Compound 1s, 1,4-Bis[spiro[isobenzothiophene-1(3 H),4'-piperidin]-1-yl]butane], the IC50 came to 0.04 nM.
`c1ccc2c(c1)OC1(CCN(CCCCN3CCC4(CC3)Oc3ccccc3O4)CC1)O2` [Compound 1i, 1,4-Bis[spiro[1,3-benzodioxol-2,4'-piperidin]-1'-yl]butane] yielded an IC50 of 45 nM.
On the same count and under the same terms, the value for `OC(CN1CCC(c2ccc(F)cc2)CC1)CN1CCC(c2ccc(F)cc2)CC1` [Compound 12a, 1,3-Bis[4-(4-fluorophenyl)piperidin-1-yl]-2-propanol] was 2.4 nM.
Compound `C1=CC2(CCN(CCCCN3CCC4(C=Cc5ccccc54)CC3)CC2)c2ccccc21` [Compound 4a, 1,4-Bis[spiro[ind-2-en-1,4'-piperidin]-1'-yl]butane] registered an IC50 of 4 nM.
On the same count and under the same terms, next, `Fc1ccc(C(CCN2CCC3(CC2)OCc2ccccc23)CCN2CCC3(CC2)OCc2ccccc23)cc1` [Compound 7b, 1,5-Bis[spiro[isobenzofuran-1(3 H),4'-piperidin]-1'-yl]-3-(4-fluorophenyl)pentane, difumarate]: 0.72 nM.
On the same count and under the same terms, the value for `c1ccc2c(c1)COC21CCN(CCSCCN2CCC3(CC2)OCc2ccccc23)CC1` [Compound 8a, Bis[2-spiro[isobenzofuran-1(3 H),4'-piperidin]-1-ylethyl]sulphide, difumarate] was 0.78 nM; that for `c1ccc2c(c1)COC1(CCN(CCCCN3CCC4(CC3)Cc3ccccc3CO4)CC1)C2` [Compound 1c, 1,4-Bis[1,4-dihydro-spiro[2-benzopyran-3,4'-piperidin]-1'-yl]butane] was 16 nM; that for `c1ccc2c(c1)CCCC21CCN(CCCCN2CCC3(CCCc4ccccc43)CC2)CC1` [Compound 1q, 1,4-Bis[3,4-dihydro-spiro[naphthalene-1(2 H),4'-piperidin]-1'-yl]butane] was 4 nM.
Regarding `Fc1ccc(C2CCN(CCCCCN3CCC(c4ccc(F)cc4)CC3)CC2)cc1` [Compound 1d, 1,5-Bis[4-(4-fluorophenyl)piperidin-1-yl]pentane, 2.5 fumarate], the IC50 was determined as 1.4 nM.
`c1ccc2c(c1)COCC21CCN(CCCCN2CCC3(CC2)COCc2ccccc23)CC1` [Compound 1k, 1,4-Bis[1,3-dihydro-spiro[2-benzopyran-4,4'-piperidin]-1'-yl]butane] came in with an IC50 of 8.7 nM.
Still for that read-out and setting: next, `c1ccc2c(c1)COC21CC2CCC(C1)N2CCCCN1C2CCC1CC1(C2)OCc2ccccc21` (stereo not drawn) [Compound 1n, 1,4-Bis[spiro[isobenzofuran-1(3 H),3'-8'-azabicyclo[3',2',1']octan]-8'-yl]butane]: 99 nM.
Still for that read-out and setting: next, `c1ccc2c(c1)COC21CCN(CCOCCN2CCC3(CC2)OCc2ccccc23)CC1` [Compound 10a, Bis[2-spiro[isobenzofuran-1(3 H),4'-piperidin]-1'-ylethyl]ether,dihydrochloride]: 2.5 nM.
On the same count and under the same terms, the value for `c1ccc2c(c1)COC21CCN(CCCCCN2CCC3(CC2)OCc2ccccc23)CC1` [Compound 1h, 1,5-Bis[spiro[isobenzofuran-1(3 H),4'-piperidin]-1-yl]pentane tetrafumarate] was 2 nM; that for `c1ccc2c(c1)OCCC21CCN(CCCCN2CCC3(CCOc4ccccc43)CC2)CC1` [Compound 1u, 1,4-Bis[spiro[1-benzopyran-4,4'-piperidin]-1'-yl]butane] was 0.17 nM.
For the compound `c1ccc2c(c1)COC21CCN(CCN(CCN2CCC3(CC2)OCc2ccccc23)C2CCCC2)CC1` [Compound 3a, N,N-Bis[2-spiro[isobenzofuran-1(3 H),4'-piperidin]-1'-ylethyl]-N-cyctopentylamine, trihydrochloride], the IC50 amounted to 1.5 nM. This IC50 is about 8.8-fold higher than that of the compound before.
Same read-out and setting: next, `Fc1ccc(C2=CC3CCC(C2)N3CCCCN2C3C=C(c4ccc(F)cc4)CC2CC3)cc1` [Compound 1o, 1,4-Bis[3-(4-fluorophenyl)-8-azabicyclo[3,2,1]oct-2-en-8-yl]butane]: 74 nM; `Fc1ccc(C2CCN(CCCN3CCC(c4ccc(F)cc4)CC3)CC2)cc1` [Compound 2b, 1,3-Bis[4-(4-fluorophenyl)piperidin-1-yl]propane]: 0.17 nM.
Still for that read-out and setting: next, `c1ccc2c(c1)CCC21CCN(CCCCN2CCC3(CCc4ccccc43)CC2)CC1` [Compound 5a, 1,4-Bis[spiro[indan-1,4'-piperidin]-1'-yl]butane]: 3.1 nM; `c1ccc2c(c1)COC21CCN(CCCCN2CCC3(CC2)OCc2ccccc23)CC1` [Compound 1a, 1,4-Bis[spiro[isobenzofuran-1(3 H),4'-piperidin]-1'-yl]butane]: 0.64 nM.

System in a further assay: not given
Assay: not given
As to conditions: clinical; Snyder and Largent 1989; cited from earlier work.
As to `C[C@@H]1CN(CCCn2c3ccccc3c3ccccc32)C[C@H](C)N1` [Rimcazole, reference compound], the “effects in the treatment of psychosis” value is on record as “clinically shows effects in the treatment of psychosis”.

Source of the values: patent US5684012A, “Dimeric piperidine, tetrahydropyridine and piperazine derivatives” (H. Lundbeck A/S, priority 1992, dated 1997).
